Data from BindingDB's records for doi:10.1021/jm00080a030 (Abbott Laboratories, 1992).
pEC50: −log10 of the molar value.

Biological target: C5a anaphylatoxin chemotactic receptor 1 (Homo sapiens) (UniProt P21730)
Assay: Potency as the maximal lysosomal myeloperoxidase (MPO) release in PMNL assay

Chain of C5a anaphylatoxin chemotactic receptor 1 (Homo sapiens) (P21730 whole entry, looked up): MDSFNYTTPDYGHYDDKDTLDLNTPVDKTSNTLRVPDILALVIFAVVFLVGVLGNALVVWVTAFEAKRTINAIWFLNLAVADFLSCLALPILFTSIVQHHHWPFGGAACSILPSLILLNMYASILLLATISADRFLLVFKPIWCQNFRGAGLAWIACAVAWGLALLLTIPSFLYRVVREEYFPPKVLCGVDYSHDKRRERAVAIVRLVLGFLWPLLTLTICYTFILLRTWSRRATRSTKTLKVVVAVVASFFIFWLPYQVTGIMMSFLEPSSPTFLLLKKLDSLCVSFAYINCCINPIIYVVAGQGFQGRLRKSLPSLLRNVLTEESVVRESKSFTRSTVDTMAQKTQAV

Compound | pEC50
CSCC[C@H](NC(=O)[C@H](CC(=O)O)NC(=O)[C@H](CCCCN)NC(=O)[C@@H](N)Cc1cccs1)C(=O)N[C@@H](CCC(N)=O)C(=O)N[C@@H](CC(C)C)C(=O)NCC(=O)N[C@@H](CCCNC(=N)N)C(=O)O | 3.70
Ac-FKDMQLGR-OH | 4.46
H-LRANISFKDMQLGR-OH | 4.22
